# Results: patent US10912741B2, “Prevention of liver cancer with safranal-based formulations” (United Arab Emirates University, priority 2019, dated 2021)
# Columns and labels:
# catalase (CAT) = experiment: Catalase activity in liver homogenate, DEN/2-AAF hepatocarcinogenesis model; assay type: in vivo, albino Wistar rats; details: mean±SEM, 8 rats
# Description: The experimental hepatocarcinogenesis model was developed according to a protocol by […] et al. that was adapted for our purposes. To initiate and promote hepatocarcinogenesis, diethylnitrosamine (DEN) and 2-acetylaminofluorene (2-AAF) were used, respectively. For hepatocarcinogenesis initiation in this model, a single DEN dose (200 mg/kg b.wt.) dissolved in saline was injected intraperitoneally. After initiation, all rats underwent one period of 5-days fasting, as mitotic proliferative stimuli. To promote hepatocarcinogenesis, 2-acetylaminofluorene (2-AAF) was introduced in the form of six daily intragastric doses (30 mg/kg in 1% Tween 80); two weeks after DEN treatment. […] at doses of 25 mg/kg by weight (b.wt.) and 50 mg/kg b.wt, was administrated orally to rats. These doses have been reported to suppress chemically-induced oxidative damage in rats. A total of 40 adult male albino Wistar rats were randomly divided into […] (n=8) and were subjected to different treatments. Group 1 (control) was orally administered distilled water (5 ml/kg b.wt.) throughout the experimental duration and were injected with a single dose of saline. Group 2 ([…] only) was subjected to a safranal dose (50 mg/kg b.wt.) through oral administration for the duration of the experimental period. Hepatocarcinogenesis was induced by DEN and promoted by 2-AAF, as reported previously, in group 3 (HCC). […] Glutathione (GSH) content was determined by analyzing liver homogenates, according to the method of Van Dooran et al. The assay depends on measuring yellow 5-thiol-2-nitrobenzoate absorbance at 412 nm. Glutathione-S-transferase (GST) activity was determined using the method of Habig et al. GST catalyzes the conjugation of GSH thiol group with 1-Chloro-2,4-dinitrobenzene (CDNB), which can be measured by determining the increase in absorbance at 340 nm. […] CAT decomposes hydrogen peroxide (H2O2) to oxygen and water; therefore, the activity of CAT was evaluated according to by the exponential decomposition of H2O2 at 240 nm. […] UV-160-Shimadzu recording spectrophotometer was used to record absorbances. […]
# TNF-α = TNF-α level in serum by ELISA; assay type: in vivo, albino Wistar rats
# Description: The experimental hepatocarcinogenesis model was developed according to a protocol by Espandiaria et al. that was adapted for our purposes. To initiate and promote hepatocarcinogenesis, diethylnitrosamine (DEN) and 2-acetylaminofluorene (2-AAF) were used, respectively. For hepatocarcinogenesis initiation in this model, a single DEN dose (200 mg/kg b.wt.) dissolved in saline was injected intraperitoneally. After initiation, all rats underwent one period of 5-days fasting, as mitotic proliferative stimuli. To promote hepatocarcinogenesis, 2-acetylaminofluorene (2-AAF) was introduced in the form of six daily intragastric doses (30 mg/kg in 1% Tween 80); two weeks after DEN treatment.
# Safranal at doses of 25 mg/kg by weight (b.wt.) and 50 mg/kg b.wt, was administrated orally to rats. These doses have been reported to suppress chemically-induced oxidative damage in rats. A total of 40 adult male albino Wistar rats were randomly divided into […] (n=8) and were subjected to different treatments. Group 1 (control) was orally administered distilled water (5 ml/kg b.wt.) throughout the experimental duration and were injected with a single dose of saline. […]
# TNF-α level in serum was quantitatively measured using Enzyme-Linked Immunosorbent Assay (ELISA), according to the manufacturer instructions (ELISA kits (R&D Systems), Minnesota, USA. Results are presented in picograms/milligrams.
smiles,measurement,setting,value
"CC1=C(C=O)C(C)(C)CC=C1 [Safranal, 2,6,6-trimethylcyclohexa-1,3-diene-1-carbaldehyde]",CAT,"catalase (CAT); HCC (DEN/2-AAF) rats + safranal high dose 50 mg/kg b.wt. oral, 12 weeks",145.4512 ± 4.57 unit/mg protein
same,CAT,"catalase (CAT); HCC (DEN/2-AAF) rats + safranal low dose 25 mg/kg b.wt. oral, 12 weeks",141.38 ± 0.91 unit/mg protein
same,CAT,"catalase (CAT); safranal alone 50 mg/kg b.wt. oral, no DEN (group 2)",143.75 ± 1.2 unit/mg protein
same,TNF-α level in serum,TNF-α; low/high doses of safranal after DEN exposure (groups 4-5),significant reduction in TNF-α expression
same,TNF-α level in serum,"TNF-α; safranal alone (group 2), vs control group",no significant impact
